Experimental data from patent US8114410B2, “Composition and methods for the inhibition of membrane fusion by paramyxoviruses” (priority 2001, dated 2012).

Legend:
[1] = test system: NiV-mediated fusion (HeLa cells expressing NiV F and G, U373 target cells)
[2] = test system: HeV-mediated fusion (HeLa cells expressing HeV F and G, U373 target cells)

SMILES: CC[C@H](C)[C@H](NC(=O)[C@H](Cc1ccc(O)cc1)NC(=O)[C@H](CC(=O)O)NC(=O)[C@H](CCCCN)NC(=O)[C@H](CO)NC(=O)[C@H](CCC(N)=O)NC(=O)[C@H](CCC(N)=O)NC(=O)[C@H](CC(C)C)NC(=O)[C@H](CO)NC(=O)[C@H](CCC(N)=O)NC(=O)[C@H](CC(N)=O)NC(=O)[C@H](CCSC)NC(=O)[C@H](CO)NC(=O)[C@H](CO)NC(=O)[C@@H](NC(=O)[C@H](CCC(N)=O)NC(=O)[C@H](CO)NC(=O)[C@H](CO)NC(=O)[C@@H](NC(=O)[C@H](CC(=O)O)NC(=O)[C@@H](NC(=O)[C@H](CCCCN)NC(=O)[C@H](CC(=O)O)NC(=O)[C@@H](NC(=O)[C@H](Cc1ccccc1)NC(=O)[C@@H](NC(=O)[C@@H]1CCCN1C(=O)[C@@H]1CCCN1)C(C)C)[C@@H](C)O)C(C)C)[C@@H](C)CC)[C@@H](C)CC)C(=O)N[C@@H](CCCCN)C(=O)N[C@@H](CCC(=O)O)C(=O)N[C@@H](C)C(=O)N[C@@H](CCC(N)=O)C(=O)N[C@@H](CCCNC(=N)N)C(=O)N[C@@H](CC(C)C)C(=O)N[C@@H](CC(C)C)C(=O)N[C@@H](CC(=O)O)C(=O)N[C@H](C(=O)N[C@H](C(=O)N[C@@H](CC(N)=O)C(=O)N1CCC[C@H]1C(=O)N[C@@H](CO)C(=O)N[C@@H](CC(C)C)C(=O)O)C(C)C)[C@@H](C)O [NiV FC1]
- IC50 [1]: 5.2 to 5.8 nM
- Inhibition of NiV-mediated fusion (in words) [1]: completely inhibitory in the nM range
- IC50 [2]: 5.2 to 5.8 nM
- Inhibition of HeV-mediated fusion (in words) [2]: completely inhibitory in the nM range
